In a melting point compilation (Tetko et al.; mined from patent text by program, amines drawn as free bases though some values may be those of a salt) one finds melting point data, which are given here for 89 compounds.

SMILES strings stand for the structures.

As usually defined, the melting point is the temperature of the solid-liquid transition.

Consider `CC(=O)CC(=O)NC1=Nc2ccc(Cl)cc2C(c2ccccc2)=NCC1`, for which the melting point lay within 158 to 159 °C.

In turn, `Cc1cc(O)c2c(c1)CCCC2` returned a melting point of 95 to 96 °C.

On to `N#Cc1ccc(CCn2ccn([C@H]3CCc4c(F)cc(F)cc4C3)c2=S)cc1`, for which the melting point lay within 130 to 133 °C. The same measure for `CC(C)(C)c1cc(C(=O)COc2ccc(C(=O)O)c(O)c2)cc(C(C)(C)C)c1O`: 164 to 165 °C; for `CC(NC(=O)C(NC(=O)c1ccccc1)SC(=O)c1ccccc1)C(=O)N1CCCC1C(=O)O` (centres undefined): 185 to 188 °C. As for `CCCCc1nc2ccn(Cc3ccc(N)cc3)c(=O)c2n1Cc1ccc(-c2ccccc2C#N)cc1`, the melting point is 223 °C. As to `COc1ccc2c(Cc3c(Cl)cncc3Cl)nnc(-c3ccccc3)c2c1`, the melting point is 206 to 208 °C. With `Cc1ccoc1C(=O)Nc1ccc(-n2nc(C(F)(F)F)cc2C(F)(F)F)cc1`, the melting point lay in the range of 119 to 120 °C. For the compound `CCOC(=O)C(Cc1ccc(-c2ccc([N+](=O)[O-])cc2)o1)(NC(C)=O)C(=O)OCC`, the melting point is 183 to 185 °C. The same measure for `CSc1ccc(-c2nc(SC)c(C#N)c(=O)n2-c2ccc(C)cc2)cc1`: 196 to 198 °C; for `Cc1cccc(-c2c[nH]c(=O)c(C#N)c2)c1`: 254 to 260 °C; for `Cc1ccc(CSc2nc3cscc3n2C(=O)OC(C)(C)C)nc1`: 115 to 117 °C.

The compound `[N-]=[N+]=NOS(=O)(=O)N=[N+]=[N-]` returned a melting point of 60 °C. The figure for `O=C(O)CCCCCN1CCCCC1` is 74 to 76 °C. The figure for `COC(=O)c1c[nH]c(C=Cc2cnc3nc(NC(=O)C(C)(C)C)nc(O)c3c2)c1` is above 260 °C. The figure for `CCC(CC)n1nnc2c(Nc3c(Br)cc(OC)cc3OC)nc(C)cc21` is 166 to 167 °C. As for `CCOC(=O)c1cn(C)nc1NCc1ccc(-c2ccccc2C#N)cc1`, the melting point was 151 to 152 °C. `N#Cc1cc(Cl)cc2c1OC(C(F)(F)F)C(C(=O)O)=C2` (centres undefined) registered a melting point of 238 to 240 °C. The figure for `Cc1ccc2c(c1)C(c1ccccc1)(C(F)(F)F)c1cc(C)ccc1O2` is 150 to 151 °C; for `CCN(CC)C(=O)Nc1ccc(NCc2ccccc2Cl)cc1N` it is 153 to 155 °C; for `CCNC(=O)n1cc(F)c(NC(=O)NCc2ccccc2OC)nc1=O` it is 248 to 250 °C.

On to `CC1(C)C(N)C(C)(C)S1(=O)=O`, for which the melting point was in the range of 104 to 106 °C. `COc1ccc(C(=O)N2CCC[C@H]2C(OC)OC)cc1` had a melting point of 51 to 52.5 °C. As to `CC(C)c1c(S(=O)(=O)c2ccc(O)cc2)cnn1C`, the melting point lay within 209 to 210 °C.

Compound `[N-]=[N+]=N[C@H](C(=O)O)C12CC3CC(CC(C3)C1)C2` displayed a melting point of 110 to 112 °C. The same measure for `CC(=O)Nc1ccn(C2CCC(COC(C)=O)O2)c(=O)n1` (centres undefined): 210 to 211 °C; for `Cn1c2ccc(C(=O)c3ccccc3)cc2c2cc(C(=O)c3ccccc3)ccc21`: 222 °C; for `CC1CCc2ncc(C(=O)NN)c(=O)n21` (centres undefined): 136 to 137 °C. The same measure for `CCCCc1nc(S(=O)c2ccccc2)c(C(=O)O)n1Cc1ccc(-c2ccccc2C(=O)O)cc1` (centres undefined): 195 °C; for `Cc1[nH]c(=O)n(-c2cc(OC(C)C)c(Cl)cc2F)c(=O)c1F`: 162 to 164 °C; for `C[C@]1(COc2ccc(N3CCC(OCC=Cc4ccc(OC(F)(F)F)cc4)CC3)cc2)Cn2cc([N+](=O)[O-])nc2O1`: 214 to 217 °C. The same measure for `CC(=O)Oc1c(C(=O)N2CCc3ccccc32)c(=O)n2c3c(cc(N)cc13)OCC2`: 220 to 225 °C; for `COc1ccc(-c2ccc(C(N)=O)cc2)cc1-c1cccc([N+](=O)[O-])c1`: 201 to 205 °C; for `NCCCNc1nc2c(NCc3ccccc3)ncnc2n1C1OC(CO)C(O)C1O` (centres undefined): 72 to 76 °C. The compound `CCOC(=O)N1CCN(Cc2ccc(O)c3ncccc23)CC1` displayed a melting point of 92 to 93 °C. The same measure for `CCC(=CC(CNC(=O)c1c(C)noc1C)=NO)C(C)[N+](=O)[O-]` (centres undefined): 100 to 103 °C; for `Cn1cnnc1C(O)(c1ccc(Cl)cc1)c1ccc2c(c1)c(-c1cccc(Cl)c1)cc(=O)n2Cc1ccc(C#N)cc1` (centres undefined): 185 °C; for `Cc1[nH]nc(Oc2ccc(C(F)(F)F)cc2[N+](=O)[O-])c1C`: 92 to 95 °C. The figure for `CCCCC(Cc1ccc(OCCNC(=O)c2ccc(Oc3ccccc3)nc2)cc1)C(=O)O` (centres undefined) is 124 to 125 °C; for `CN(C(=O)CN(C(=O)CNC(=O)Nc1cccc(/C=C/CO)c1)c1ccccc1)c1ccccc1` it is 85 °C.

On to `C[C@H](Cn1ncnn1)n1cnc2cc3c(=O)n([C@H](C)Cn4cnnn4)nnc3cc2c1=O`, for which the melting point lay in the range of 168 to 170 °C. For `COc1cccc2c(C3CCN(C(=O)OC(C)(C)C)CC3)noc12`, the melting point was 130 to 132 °C. The figure for `c1ccc2c(N3CCNCC3)nccc2c1` is 54 to 56 °C; for `c1csc(-c2cnc(COc3ccc(CCCn4ccnc4)cc3)s2)c1` it is 82 to 84 °C; for `CCOC(=O)c1cc2cc(-c3ccc(N)cc3)ccc2o1` it is 95 to 97 °C. The figure for `FC(F)(F)c1ccc(CC[C@H]2CN(Cc3ccccc3)CCN2Cc2ccccc2)cc1` is 71 to 75 °C; for `COCc1cc2c(s1)CCc1cc(=O)n(-c3ccc(C)cc3)nc1-2` it is 132 to 133 °C. The same measure for `CCc1nn(Cc2ccccn2)c(C(N)=O)c1NC(=O)c1cc(S(C)(=O)=O)ccc1OCC(C)C`: 225 to 227 °C. In turn, `COCCn1cnc2cc(CN3CCN(C(c4ccccc4)c4ccccc4)CC3)ccc21` showed a melting point of 162 °C. For `CCCn1cc2c(C3C(=O)Nc4ccc(Br)cc43)nc(NCC3CCCN3)nc2n1` (centres undefined), the melting point was in the range of 286 to 293 °C.

For `CCCn1c(=O)c2[nH]c(C(C)Cc3ccncc3)nc2n(CCC)c1=O` (centres undefined), the melting point lay in the range of 215 to 217 °C.

With `COc1ccc(Br)c(C(=NNS(=O)(=O)c2ccccc2)N2CCN(C)CC2)c1`, the melting point was in the range of 141 to 145 °C.

Compound `Cn1ncnc1COc1nc2c(cc1CC(C)(C)C)nnn2-c1ccccc1F` showed a melting point of 130 to 133 °C. `CC(=O)Nc1noc(C)c1Cl` yielded a melting point of 121 to 122 °C.

Consider `CS(=O)(=O)c1ccc(C(=O)Cl)c(Cl)c1-c1nccs1`, for which the melting point was 97 to 98 °C. The figure for `CC(=NO)c1ccccc1NC(C(N)=O)c1c(Cl)cccc1Cl` (centres undefined) is 115 °C; for `COC(=O)c1ccc(-c2ccc(Cl)cc2)nc1` it is 124 to 126 °C; for `CCOC(=O)c1c(O)c2cc(F)ccc2c(=O)n1CC1CC1` it is 61 to 62 °C. The figure for `O=C(O)c1cc(=O)c2cccc(COc3ccc(OCc4ccc5ccccc5n4)cc3)c2o1` is 221 to 224 °C.

For `COC(=O)c1ccc(Cl)c(C#N)c1`, the melting point stood at 193 °C.

Compound `O=C(O)c1cccc(Oc2ccc(Br)cc2)c1` returned a melting point of 171 to 173 °C.

Compound `Cn1cc(-c2ccccc2)c(=O)c(-c2ccco2)c1` showed a melting point of 191 to 192 °C. The figure for `CC(CN1C(=O)c2ccccc2C1=O)OS(C)(=O)=O` (centres undefined) is 111 to 121 °C.

Take `COc1ccnc(CSc2nc3cc4c(cc3[nH]2)C(C)(C)C(=O)C4(C)C)c1C`: the melting point lay in the range of 218 to 220 °C. In turn, `CCCn1cc(Cc2ccc(C(=O)O)cc2OC)c2cc(C=CCCC(=O)N(C)C)ccc21` came in with a melting point of 151 to 153 °C. The compound `FC(F)(F)Oc1ccc2nccc(N3CCN(C(=S)NCc4ccccc4)CC3)c2c1` returned a melting point of 70 to 71 °C. `Fc1cccc(COc2ccc(Nc3ncnc4cc(C#Cc5ncccn5)sc34)cc2Cl)c1`: the melting point lay within 236 to 240 °C.

`Cc1nc2ccc3c(c2o1)OC(CN1C2CCC1CC(O)(c1ccccc1)C2)CO3` (centres undefined) registered a melting point of 203 to 205 °C. The same measure for `CC1CC(=O)c2c(nc3c(c2N)c2ccccc2n3C)C1` (centres undefined): 216 to 217 °C; for `ClCC1OCC(OCc2ccccc2)CO1` (centres undefined): 38 to 39 °C. `COc1ccncc1Nc1nc(N2CCOCC2)nc(-n2c(C(F)F)nc3c(OC)cccc32)n1` displayed a melting point of 239 to 241 °C. The same measure for `Cn1c(=O)n(C(N)=O)c2ccccc21`: above 250 °C; for `CCCOc1ccccc1-c1ncc(C(=O)O)c(=O)[nH]1`: 203 to 206 °C; for `Fc1cccc2c(CCc3ccsc3)ccnc12`: 96 to 97 °C. The same measure for `N#Cc1cc(-c2ccccc2F)[nH]c1Cl`: 218 to 220 °C.

The compound `CC1CN(c2ccc(Cl)cc2)N=C1NCC(F)(F)F` (centres undefined) had a melting point of 84 to 86 °C. The figure for `CC(CN1CCCCC1)Nc1ccnc2cc(Cl)ccc12` (racemic) is 168 to 171 °C. The figure for `CCOc1cc(CN2CCN(c3ccc(C(=O)NC)cc3C)CC2)cc2c1OC(C)C(=O)N2` (centres undefined) is 173 to 180 °C. The same measure for `CN1C(=O)[C@H](N)N=C(C2CCCCC2)c2ccccc21`: 130 to 133 °C.

For the compound `COC(=O)c1ccc(-c2nc(C)no2)s1`, the melting point fell in the range of 154 to 156 °C. The figure for `Cc1nc(N2CCCC2=O)sc1C(=O)NCc1ccccc1` is 222 to 224 °C; for `CC1=C(C(=O)OCC2CC2)C(c2ccccc2C(F)(F)F)c2c(ccnc2OC(C)C)N1` (centres undefined) it is 112 to 114 °C.

Consider `CS(=O)(=O)c1ccc(-c2cc(C(=O)CCCO)nn2-c2ccc(Br)cc2)cc1`, for which the melting point is 136 to 137 °C. The same measure for `Cc1ccc(NC(=O)c2cccnc2Oc2cccc(Cl)c2)cc1`: 140 to 143 °C; for `ON=Cc1ccc(-c2ccc(O)cc2)c2sccc12`: 230 to 231 °C; for `CCOC(=O)C(O)(CC(=O)c1ccc(-n2ccnc2)cc1)C(=O)OCC`: 155 to 156 °C. The figure for `CC(C)NC(=O)C(C)(F)c1ccc(OS(=O)(=O)C(F)(F)F)cc1` (centres undefined) is 90 to 92 °C.

Take `CCNC(=O)c1ccc(Nc2nc(OCC3CCCCC3)c3nc[nH]c3n2)cc1`: the melting point was 156 to 158 °C.

Regarding `NCCCCCCNc1nsc2nccn12`, the melting point lay within 81 to 82 °C.
